Data reported in publication PMC5576140 (Antiviral research, 2017).
In brackets after ≈: the same amount, converted by molar mass. Like-named read-outs stand apart in the source and are kept apart here.

What was measured:
[1] = Viability assay in MT-4 cell cultures; type: cell-based; settings: human, MT-4 cells
[2] = test system: HIV-1 X4LAI.04; test: HIV-1 inhibition in MT-4 cell cultures; type: cell-based; settings: read-out: EC50 (MT-4)
[3] = test system: M. tuberculosis MS-115; test: Anti-TB activity, growth in Middlebrook 7H9 medium, BACTEC MGIT960; type: cell-based; settings: clinical MDR strain
[4] = type: in vitro ADME; settings: for hydrolysis products found in human blood serum: HPLC-HRMS; for stability in human blood serum: 15 h
[5] = test system: M. tuberculosis H37Rv; test: Anti-TB activity, growth in Middlebrook 7H9 medium, BACTEC MGIT960; type: cell-based; settings: growth inhibition not less than 99%
[6] = Chemical stability at pH 2.2, 7.4 and 9.0; type: physicochemical; settings: pH 9.0 (glycine+NaOH)
[7] = growth inhibition not less than 99%
[8] = value in brackets, same MIC in μM
[9] = MT-4 cell cultures, HIV-1 X4LAI.04, 3 days, p24gag

| Compound | CC50 [1] [µM] | EC50 ([2]; Human immunodeficiency virus 1, MT4, 72 h) [nM] | MIC (99) M.tuberculosis MS-115 [3, 7] [µg/mL] | MIC (99) M.tuberculosis MS-115 [3, 8] [µM] | hydrolysis products found in human blood serum [4] | MIC (99) M.tuberculosis H37Rv [5] [µg/mL] | EC50 [2, 9] [nM] | stability in human blood serum [4] | stability to chemical hydrolysis [6] | T1/2 in human blood serum [4] [min] |
| --- | --- | --- | --- | --- | --- | --- | --- | --- | --- | --- |
| Cc1cn([C@H]2C[C@H](N=[N+]=[N-])[C@@H](CO)O2)c(=O)[nH]c1=O [AZT, 3′-azido-3′-deoxythymidine, reference compound] | > 100 | 30 |  |  |  |  |  |  |  |  |
| CCCCCCCCCCc1cn(Cc2cn([C@H]3C[C@H](O)[C@@H](COC(=O)OC[C@H]4O[C@@H](n5cc(C)c(=O)[nH]c5=O)C[C@@H]4N=[N+]=[N-])O3)c(=O)[nH]c2=O)nn1 [Compound 1, 5′-O-[AZT-carbonyl]-5-[(4-decyl-1,2,3-triazol-1-yl)methyl]-2′-deoxyuridine] |  |  | 50 | 67 | both AZT and dU^R derivative | 50 (≈ 67.3 µM) | 390 |  |  |  |
| CCCCCCCCCCc1cn(Cc2cn([C@H]3C[C@H](OC(=O)OC[C@H]4O[C@@H](n5cc(C)c(=O)[nH]c5=O)C[C@@H]4N=[N+]=[N-])[C@@H](CO)O3)c(=O)[nH]c2=O)nn1 [Compound 2, 3′-O-[AZT-carbonyl]-5-[(4-decyl-1,2,3-triazol-1-yl)methyl]-2′-deoxyuridine] |  |  | 20 | 27 | both AZT and dU^R derivative | 10 (≈ 13.5 µM) | 70 |  |  |  |
| CCCCCCCCCCc1cn(Cc2cn([C@H]3C[C@H](OC(=O)OC[C@H]4O[C@@H](n5cc(C)c(=O)[nH]c5=O)C[C@@H]4N=[N+]=[N-])[C@@H](COC(=O)OC[C@H]4O[C@@H](n5cc(C)c(=O)[nH]c5=O)C[C@@H]4N=[N+]=[N-])O3)c(=O)[nH]c2=O)nn1 [Compound 3, 3′,5′-di-O-[AZT-carbonyl]-5-[(4-decyl-1,2,3-triazol-1-yl)methyl]-2′-deoxyuridine] |  |  | 10 | 9.7 | 1, 2, AZT, and dU^R | 20 (≈ 19.3 µM) | 80 |  |  |  |
| CCCCOc1ccc(Nc2cn(C3C=CC(O)C3)c(=O)n(CCCn3c(=O)c(C)cn(C4CC(N=[N+]=[N-])C(CO)O4)c3=O)c2=O)cc1 (stereo not drawn) [Compound 5, [AZT]-N3-propyl-N3-[1-N-(4′-hydroxycyclopent-2′-enyl)-5-(p-butoxyphenylamino)]uracil] |  |  | 50 | 75 |  | > 50 | 12900 | stable | stable |  |
| Cc1cn([C@H]2C[C@H](O)[C@@H](COP(=O)(O)O)O2)c(=O)[nH]c1=O [TMP, reference compound] |  |  |  |  |  |  |  |  |  | 20 |
| [AZT]-N3-propyl-N3-[1-N-[4′-(o,o-dimethylbenzyl)cyclopent-2′-enyl]uracil] [Compound 4] |  |  |  |  |  |  | 19800 | only slight debenzoylation at the carbocyclic fragment | stable |  |
